The record followed here is patent US20230250095A1, “BENZIMIDAZOLE DERIVATIVES, PREPARATION METHOD THEREFOR AND MEDICAL USE THEREOF” (TUOJIE BIOTECH(SHANGHAI) CO., LTD., priority 2020, published 2023).

Read-outs that look alike come from different tables or passages of the source.

The target of one assay is T1, hP2X3 (Homo sapiens, UniProt P56373).
T1 construct: host or cells: 1321N1 cells
T1 sequence (P56373 1-397): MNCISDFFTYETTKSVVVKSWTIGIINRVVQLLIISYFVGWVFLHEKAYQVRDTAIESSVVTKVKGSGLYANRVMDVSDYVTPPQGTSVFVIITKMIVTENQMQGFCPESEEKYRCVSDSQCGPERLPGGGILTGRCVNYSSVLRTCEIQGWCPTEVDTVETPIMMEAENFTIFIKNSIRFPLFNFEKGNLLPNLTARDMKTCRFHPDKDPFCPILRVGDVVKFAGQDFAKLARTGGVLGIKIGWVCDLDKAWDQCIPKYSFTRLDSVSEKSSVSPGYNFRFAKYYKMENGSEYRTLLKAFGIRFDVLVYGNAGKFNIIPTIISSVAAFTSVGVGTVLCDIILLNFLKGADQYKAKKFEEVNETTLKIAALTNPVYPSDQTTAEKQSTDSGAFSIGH
Kind of assay: FLIPR calcium flux assay, antagonistic activity against hP2X3 receptor. Type of assay: cell-based. As to conditions: 1321N1/hP2X3 cells, agonist α,β-meATP 500 nM. As to the method: (§1) The compounds were screened for antagonistic activity against hP2X3 and hP2X2/3 receptors (changes in calcium flux signals represent the effect of the compounds on ion channels) by an FLIPR assay.
(§2) 1321N1 cells (adherent cells) stably transfected with hP2X3 and hP2X2/3 receptors were digested, centrifuged, resuspended in a plating medium (DMEM+10% DFBS) and counted, adjusted to 2×10^5 cells/mL. The cells were seeded in a 384-well assay plate at 50 μL/well, and incubated in an incubator at 37° C. with 5% CO2 for 16-24 h. Test compounds (20 mM DMSO stock solution) that were 180 times the desired concentration were prepared with DMSO, and added to a 384-well compound plate at 500 nL/well. Then, each well was supplemented with 30 μL of FLIPR buffer (lx HBSS containing 1.26 mM Ca^2++2 mM CaCl2)+20 mM HEPES), and the mixture was shaken for 20-40 min to be mixed well. The agonist α,β-meATP (final concentration of 500 nM for hP2X3 cells and final concentration of 1000 nM for hP2X2/3 cells) that was 3 times the desired concentration was prepared with an FLIPR buffer, and added to another 384-well compound plate at 35 μL/well. The cell plate in which cells had been plated and cultured for 16-24 h was taken out, and the cell supernatant was removed by pipetting. 30 μL of dye (FLIPR® calcium 4 assay kit, diluted with an FLIPR buffer) was added to each well, and the plate was incubated for 1 h. 15 μL of the compound was added to each well containing cells (dosing using an FLIPR instrument), and after 15 min, 22.5 μL of agonist was added to each well and the fluorescent signal was detected (excitation wavelength: 470-495 nm, emission wavelength: 515-575 nm). With the difference between the peak and the trough of the signal taken as the basic data, the data of the highest concentration of the positive drug taken as the 100% inhibition rate, and the data of DMSO taken as the 0% inhibition rate, the inhibition effect curves of the compounds were fitted on the software Graphpad Prism 6 and IC50 values were calculated.
On the technique in general: Calcium assays in cells follow changes in intracellular calcium, usually with a dye or a luminescent sensor.

A further assay deals with T2, hP2X2/3 (Homo sapiens, UniProt P56373+Q9UBL9).
T2 construct: host or cells: 1321N1 cells
T2 sequence (Q9UBL9 1-471): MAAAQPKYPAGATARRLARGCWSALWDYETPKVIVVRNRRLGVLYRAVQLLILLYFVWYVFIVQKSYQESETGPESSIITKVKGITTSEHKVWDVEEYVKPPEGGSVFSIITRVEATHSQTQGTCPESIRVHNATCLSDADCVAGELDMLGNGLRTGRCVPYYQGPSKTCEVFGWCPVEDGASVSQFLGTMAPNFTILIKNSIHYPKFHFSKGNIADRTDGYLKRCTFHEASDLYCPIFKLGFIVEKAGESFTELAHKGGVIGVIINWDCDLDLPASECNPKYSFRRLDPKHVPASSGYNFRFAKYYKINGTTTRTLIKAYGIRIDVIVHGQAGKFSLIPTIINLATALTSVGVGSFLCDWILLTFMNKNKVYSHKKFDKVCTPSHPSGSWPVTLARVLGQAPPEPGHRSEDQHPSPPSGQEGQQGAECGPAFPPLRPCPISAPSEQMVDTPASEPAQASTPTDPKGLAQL
T2 sequence (P56373 1-397): T1 sequence (P56373 1-397)
Nature of the assay: FLIPR calcium flux assay, antagonistic activity against hP2X2/3 receptor. It counts as cell-based. As to conditions: 1321N1/hP2X2/3 cells, agonist α,β-meATP 1000 nM. Here is the method: as §1, §2

Another assay addresses T3, CYP2C9 (Homo sapiens, UniProt P11712).
T3 construct: 150-donor pooled human liver microsomes (purchased from Corning, Cat. No. 452117); tissue Corning 452117; host or cells: 150-donor pooled human liver microsomes
Kind of assay: CYP inhibition assay in pooled human liver microsomes (diclofenac sodium). It counts as in vitro ADME. As to conditions: human liver microsomes 0.2 mg/mL, substrate diclofenac sodium; read-out: CYP 2C9 (μM) IC50. Here is the method: (§3) The metabolic reactions of representative substrates of 5 major human CYP subtypes (CYP1A2, CYP2C9, CYP2C19, CYP2D6, CYP3A4/5) were evaluated using 150-donor pooled human liver microsomes (purchased from Corning, Cat. No. 452117). The effects of different concentrations of the test compounds on the metabolic reactions of phenacetin (CYP1A2), diclofenac sodium (CYP2C9), S-mephenytoin (CYP2C19), bufuralol hydrochloride (CYP2D6) and midazolam (CYP3A4/5) were determined by liquid chromatography-tandem mass spectrometry (LC/MS/MS).
(§4) 30 μM phenacetin, 10 μM diclofenac sodium, 35 μM S-mephenytoin, 5 μM bufuralol hydrochloride, 3 μM midazolam, 1 mM NADPH, and test compounds (at concentrations of 0.1 μmol/L, 0.3 μmol/L, 1 μmol/L, 3 μmol/L, 10 μmol/L, and 30 μmol/L, respectively) or positive compound or blank were incubated with 200 μL of a reaction system of pooled human liver microsomes (0.2 mg/mL) (100 mmol/L phosphate buffer, pH 7.4, containing 0.3% by volume of DMSO, 0.6% by volume of acetonitrile, and 0.1% by volume of methanol) at 37° C. for 5 min. Then, 200 μL of acetonitrile containing 3% formic acid and 40 nM internal standard verapamil was added, and the mixture was centrifuged at 4000 rpm for 50 min. The mixture was cooled on ice for 20 min and centrifuged at 4000 rpm for 20 min to precipitate the protein. 200 μL of the supernatant was analyzed by LC/MS/MS.
(§5) The peak area was calculated from the chromatogram. The residual activity rate (%) was calculated by the following formula:
(§6) peak area rate=peak area of metabolite/peak area of internal standard
(§7) residual activity rate (%)=peak area proportion of the test compound group/peak area proportion of the blank group
(§8) The half maximal inhibitory concentrations (IC50) against CYP were calculated by Excel XLfit 5.3.1.3.

Another assay addresses T4, CYP2C19 (Homo sapiens, UniProt P33261).
T4 construct: 150-donor pooled human liver microsomes (purchased from Corning, Cat. No. 452117); tissue Corning 452117; host or cells: 150-donor pooled human liver microsomes
Nature of the assay: CYP inhibition assay in pooled human liver microsomes (S-mephenytoin). It counts as in vitro ADME. As to the method: as §3, §4, §5, §6, §7, §8

Another assay concerns the target T5, CYP2D6 (Homo sapiens, UniProt P10635).
T5 construct: 150-donor pooled human liver microsomes (purchased from Corning, Cat. No. 452117); tissue Corning 452117; host or cells: 150-donor pooled human liver microsomes
Nature of the assay: CYP inhibition assay in pooled human liver microsomes (bufuralol hydrochloride). Type of assay: in vitro ADME. As to conditions: human liver microsomes 0.2 mg/mL, substrate bufuralol hydrochloride; read-out: CYP 2D6 (μM) IC50. As to the method:
as §3, §4, §5, §6, §7, §8

Setting [1] is: human liver microsomes 0.2 mg/mL, substrate S-mephenytoin, read-out: CYP 2C19 (μM) IC50.

T4 sequence (P33261 whole entry): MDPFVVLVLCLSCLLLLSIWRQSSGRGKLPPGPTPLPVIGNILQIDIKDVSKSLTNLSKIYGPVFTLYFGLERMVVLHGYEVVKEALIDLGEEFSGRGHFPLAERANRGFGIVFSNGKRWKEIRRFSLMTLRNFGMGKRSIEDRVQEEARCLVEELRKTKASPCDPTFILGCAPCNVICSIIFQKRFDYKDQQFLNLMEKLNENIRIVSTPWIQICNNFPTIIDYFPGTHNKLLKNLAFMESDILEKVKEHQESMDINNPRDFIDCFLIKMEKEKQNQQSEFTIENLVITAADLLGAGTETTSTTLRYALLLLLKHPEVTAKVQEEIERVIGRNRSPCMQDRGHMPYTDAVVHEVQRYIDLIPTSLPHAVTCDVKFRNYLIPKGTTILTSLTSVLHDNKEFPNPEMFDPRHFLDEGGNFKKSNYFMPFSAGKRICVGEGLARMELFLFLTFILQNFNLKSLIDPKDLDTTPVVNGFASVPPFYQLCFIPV
T5 sequence (P10635 whole entry): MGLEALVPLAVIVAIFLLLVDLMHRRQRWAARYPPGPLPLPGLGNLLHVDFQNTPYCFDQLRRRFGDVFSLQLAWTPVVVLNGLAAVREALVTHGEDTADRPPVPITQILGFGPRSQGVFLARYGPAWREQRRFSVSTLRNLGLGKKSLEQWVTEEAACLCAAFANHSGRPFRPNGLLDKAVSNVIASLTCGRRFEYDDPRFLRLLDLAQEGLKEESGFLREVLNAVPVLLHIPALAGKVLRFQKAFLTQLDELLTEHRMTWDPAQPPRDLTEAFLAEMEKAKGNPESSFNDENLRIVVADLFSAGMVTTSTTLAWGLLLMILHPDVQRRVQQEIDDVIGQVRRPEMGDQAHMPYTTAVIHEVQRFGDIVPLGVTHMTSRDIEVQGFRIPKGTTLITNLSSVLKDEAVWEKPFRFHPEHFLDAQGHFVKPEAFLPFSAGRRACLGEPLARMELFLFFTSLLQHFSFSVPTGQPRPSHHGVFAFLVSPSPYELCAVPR
T3 sequence (P11712 whole entry): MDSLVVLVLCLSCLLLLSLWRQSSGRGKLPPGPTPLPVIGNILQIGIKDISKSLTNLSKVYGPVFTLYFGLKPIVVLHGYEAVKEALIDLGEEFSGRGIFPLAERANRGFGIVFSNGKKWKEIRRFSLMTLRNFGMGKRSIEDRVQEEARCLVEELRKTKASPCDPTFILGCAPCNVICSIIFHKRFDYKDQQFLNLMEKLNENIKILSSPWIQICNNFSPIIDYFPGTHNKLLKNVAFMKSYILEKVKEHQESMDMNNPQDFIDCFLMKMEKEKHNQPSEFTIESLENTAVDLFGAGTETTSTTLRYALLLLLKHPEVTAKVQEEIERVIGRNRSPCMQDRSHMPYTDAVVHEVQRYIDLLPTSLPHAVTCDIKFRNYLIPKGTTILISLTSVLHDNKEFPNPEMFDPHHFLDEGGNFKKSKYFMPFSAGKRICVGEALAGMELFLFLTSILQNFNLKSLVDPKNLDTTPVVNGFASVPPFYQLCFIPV

What is called IC50 is the concentration that gives 50% inhibition. Turning to `COC(=O)N1CCOC(Cn2c(-c3c(F)cc(N4CCCC4=O)cc3F)nc3cc(C)ccc32)C1` (stereo not shown) [Compound 2, Methyl 2-((2-(2,6-difluoro-4-(2-carbonylpyrrolidin-1-yl)phenyl)-5-methyl-1H-benzo[d]imidazol-1-yl)methyl)morpholine-4-carboxylate], the IC50 is 0.105 µM on hP2X3; 19 µM on hP2X2/3; 3.06 µM on CYP2C9; 14.6 µM at CYP2C19 (setting [1]); above 30 µM on CYP2D6.

For the compound `CC(=O)N1CCO[C@@H](Cn2c(-c3c(F)cc(N4CCCC4=O)cc3F)nc3cc(Cl)ccc32)C1` [Compound 10, (S)-1-(4-(1-((4-acetylmorpholin-2-yl)methyl)-5-chloro-1H-benzo[d]imidazol-2-yl)-3,5-difluorophenyl)pyrrolidin-2-one], the half-inhibitory concentration (IC50) on hP2X3 is 0.0541 µM; on hP2X2/3, 7.41 µM; at CYP2C9, above 30 µM; on CYP2C19 (setting [1]), above 30 µM; at CYP2D6, above 30 µM.

`CC(=O)N1CCOC(Cn2c(-c3c(F)cc(N4CCCC4=O)cc3F)nc3cc(C)ccc32)C1` (stereo in doubt) [Compound 1]: the IC50 on hP2X3 is 0.0368 µM; on hP2X2/3, 5.57 µM; at CYP2C9 it was 21.7 µM; on CYP2C19 (setting [1]), 13 µM; at CYP2D6 it was above 30 µM.

Regarding `COC(=O)N1CCO[C@@H](Cc2c(-c3c(F)cc(N4CCCC4=O)cc3F)nc3cc(C)ccn23)C1` [Compound 9, Methyl (S)-2-((2-(2,6-difluoro-4-(2-carbonylpyrrolidin-1-yl)phenyl)-7-methylimidazo[1,2-a]pyridin-3-yl)methyl)morpholine-4-carboxylate], the 50% inhibitory concentration (IC50) was 0.0758 µM on hP2X3; 30.3 µM on hP2X2/3; 1.48 µM on CYP2C9; 12.9 µM against CYP2C19; above 30 µM on CYP2D6.

Regarding `CC(=O)N1CCO[C@@H](Cn2c(-c3ccc(N4CCCC4=O)cc3Cl)nc3cc(C)ccc32)C1` [Compound 3, (S)-1-(4-(1-((4-acetylmorpholin-2-yl)methyl)-5-methyl-1H-benzo[d]imidazol-2-yl)-3-chlorophenyl)pyrrolidin-2-one], the IC50 was 0.0412 µM at hP2X3; 1.81 µM on hP2X2/3; above 30 µM on CYP2C9; above 30 µM at CYP2C19 (setting [1]); above 30 µM on CYP2D6.

For the compound `[2H]C([2H])([2H])c1ccc2c(c1)nc(-c1c(F)cc(N3CCCC3=O)cc1F)n2C[C@H]1CN(C(C)=O)CCO1` [Compound 14, (S)-1-(4-(1-((4-acetylmorpholin-2-yl)methyl)-5-(methyl-d3)-1H-benzo[d]imidazol-2-yl)-3,5-difluorophenyl)pyrrolidin-2-one], the IC50 at hP2X3 was 0.033 µM; on CYP2C9 it was 21.9 µM; on CYP2C19 (setting [1]), above 30 µM; at CYP2D6 it was above 30 µM.

As for `CC(=O)N1CCO[C@@H](Cn2c(-c3c(F)cc(N4CCCC4=O)cc3Cl)nc3cc(C)ccc32)C1` [Compound 4, (S)-1-(4-(1-((4-acetylmorpholin-2-yl)methyl)-5-methyl-1H-benzo[d]imidazol-2-yl)-3-chloro-5-fluorophenyl)pyrrolidin-2-one], the IC50 is 0.0316 µM at hP2X3; 1.93 µM on hP2X2/3; above 30 µM on CYP2C9; above 30 µM on CYP2C19 (setting [1]); above 30 µM on CYP2D6.
